What is called IC50 is the concentration that gives 50% inhibition. Low readings indicate higher potency, high ones lower potency.

This note sets out measurements from ChEMBL document CHEMBL1157572 (J Med Chem, 2010).

The test system of one test is NCI-H460. As to the kind of experiment: Antiproliferative activity against human H460 cells after 72 hrs by methylene blue dye assay. Conditions: NCI-H460, 72 h. The test is classed as functional, cell-based.
The next test deals with MKN-45. Briefly: Antiproliferative activity against human MKN45 cells after 72 hrs by methylene blue dye assay. The test is classed as functional, cell-based. Conditions: MKN-45, 72 h.
Another test relates to HT-29. As to the kind of experiment: Antiproliferative activity against human HT-29 cells after 72 hrs by methylene blue dye assay. Format: functional, cell-based. Conditions: HT-29, 72 h.
The subject of the next test is KB. Briefly: Antiproliferative activity against human KB cells after 72 hrs by methylene blue dye assay. Format: functional, cell-based.
Test [1] can be described thus: Antiproliferative activity against P-gp170/MDR expressing human KBVIN cells after 72 hrs by methylene blue dye assay. Format: functional, cell-based.
A short description of test [2]: Inhibition of tubulin polymerization by turbidimetric assay.
Test [3] is described as follows: Displacement of [3H]colchicine from tubulin by at 1 uM scintillation proximity assay.
A short description of test [4]: Displacement of [3H]colchicine from tubulin by at 5 uM scintillation proximity assay.

With `COc1cc(C(=O)c2ccc3c(ccc[n+]3C)c2)cc(OC)c1OC`, the IC50 (in the test with NCI-H460; with MKN-45; in the test with HT-29; in the test on KB; in test [1]) was more than 10000 nM throughout.
As to `COc1cc(C(=O)c2cnc3ccccc3c2)cc(OC)c1OC`, the concentration for half-maximal inhibition (IC50) in the test on NCI-H460 was found to be 1600 nM; with MKN-45, 562 nM; in the test with HT-29, 1000 nM; in the test with KB, 1800 nM; in test [1], 1100 nM.
On the same counts, the results for `COc1cc(C(=O)c2cccc3ncccc23)cc(OC)c1OC` are 3800 nM, 1200 nM, 2800 nM, 2900 nM and 2300 nM.
Take `COc1cc(C(=O)c2ccc3ccccc3n2)cc(OC)c1OC`: the IC50 with NCI-H460 is 180 nM; in test [2], more than 10000 nM; in the test on MKN-45, 246 nM; in the test on HT-29 it was 148 nM; in the test with KB, 174 nM; in test [1] it was 117 nM.
As to `COc1cc(C(=O)c2ccc3ncccc3c2)cc(OC)c1OC`, the Activity was 51% in test [3] and 72% in test [4]. The IC50 with NCI-H460 was determined as 36 nM; in test [2] it was 2900 nM; in the test with MKN-45, 16.3 nM; in the test on HT-29 it was 24.6 nM; in the test with KB, 24 nM; in test [1], 21.5 nM.
On to `COc1cc(C(=O)c2cccc3cccnc23)cc(OC)c1OC`, for which the IC50 amounted to 5000 nM with NCI-H460; 3200 nM in the test on MKN-45; 4500 nM in the test on HT-29; 8100 nM with KB; 6000 nM in test [1].
The like results for `COc1cc(C(=O)c2ccc3c(ccc[n+]3[O-])c2)cc(OC)c1OC` were, in that order, 1100 nM, 617 nM, 872 nM, 830 nM and 764 nM.
`COc1ccc2nc(C(=O)c3cc(OC)c(OC)c(OC)c3)ccc2c1`: the values for the Activity in test [3] and in test [4] were 40% and 68%, respectively. For the same compound, the IC50 in the test on NCI-H460 worked out at 61.5 nM; in test [2] it was 3500 nM; in the test on MKN-45 it was 150 nM; in the test with HT-29 it was 77 nM; in the test on KB, 27.2 nM; in test [1] it was 21.5 nM.
`COc1ccc2cc(C(=O)c3cc(OC)c(OC)c(OC)c3)ccc2n1`: the IC50 with NCI-H460 is 256 nM; in test [2], more than 10000 nM; in the test on MKN-45, 138 nM; in the test on HT-29, 206 nM; with KB it was 301 nM; in test [1], 202 nM.
Turning to `COc1cc(C(=O)c2ccc3cccnc3c2)cc(OC)c1OC`, the IC50 (in the test on NCI-H460; with MKN-45; with HT-29; in the test on KB; in test [1]) was more than 10000 nM throughout.
Regarding `COc1cc(C(=O)c2ccc3c(N)c(OC)ccc3n2)cc(OC)c1OC`, the Activity in test [3] amounted to 90%; in test [4] it was 97%. Also, the 50% inhibitory concentration (IC50) in the test with NCI-H460 came to 0.4 nM; in test [2] it was 1600 nM; in the test on MKN-45, 0.3 nM; in the test on HT-29, 0.4 nM; with KB, 0.3 nM; in test [1], 0.2 nM.
As to `COc1cc(C(=O)c2ccnc3ccccc23)cc(OC)c1OC`, the IC50 in the test on NCI-H460 was determined as 3800 nM; with MKN-45, 920 nM; in the test on HT-29 it was 2300 nM; with KB it was 3500 nM; in test [1] it was 2200 nM.
The like results for `COc1cc(C(=O)c2ccnc3c(OC)cccc23)cc(OC)c1OC` were, in that order, 193 nM, 147 nM, 162 nM, 155 nM and 165 nM.
As to `COc1ccc(/C=C\c2cc(OC)c(OC)c(OC)c2)cc1O` [COMBRETASTATIN A4], the Activity in test [3] worked out at 87%; in test [4] it was 95%. For the same compound, the concentration for half-maximal inhibition (IC50) was 2.6 nM with NCI-H460; 2100 nM in test [2]; 4.9 nM in the test on MKN-45; 835 nM with HT-29; 2.4 nM in the test on KB; 1.9 nM in test [1].
